Data: patent US10870638B2, “Pyridazinone compound or its salt, and herbicide containing it” (ISHIHARA SANGYO KAISHA, LTD., priority 2016, dated 2020)

Experiments:
Format in all cases: in vivo
Details in all cases: 14th day after application
[1] = test system: velvetleaf (Abutilon theophrasti MEDIC.); assay: Test Example 2: soil application on the day after sowing, growth inhibition rate on 14th day
Procedure, shortened: (§1)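 Upland soil pots; sowing, then next-day soil spraying of compound formulations (1,000 L/ha water) at defined a.i. doses. Day-14 visual rating of inhibition on a 0–100 scale, where 100 means complete kill.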

corn (Zea mays L.) [2] = assay: as above
Procedure, shortened: as §1

[3] = test system: wheat (Triticum aestivum L.); assay: as above
Procedure, shortened: as §1

[4] = test system: redroot pigweed (Amaranthus retroflexus L.); assay: as above
Procedure, shortened: as §1

[5] = test system: green foxtail (Setaria viridis L.); assay: as above
Procedure, shortened: as §1

rice (Oryza sativa L.) [6] = assay: as above
Procedure, shortened: as §1

[7] = test system: crabgrass (Digitaris sanquinalis L.); assay: as above
Procedure, shortened: as §1

[8] = test system: barnyardgrass (Echinochloa crus-qalli L.); assay: as above
Procedure, shortened: as §1

[9] = test system: prickly sida (Sida spinosa L.); assay: as above
Procedure, shortened: as §1

[10] = test system: soybean (Glycine max Merr.); assay: as above
Procedure, shortened: as §1

corn (Zea mays L.) [11] = assay: Test Example 1: foliar treatment, growth inhibition rate on 14th day
Procedure, shortened: (§2)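 Using a small sprayer, formulated compound in water (0.1 vol % surfactant, 1,000 L/ha) was applied to seedlings grown from seed in upland soil. Fourteen days on, growth state was observed and expressed as percent inhibition from 0 to 100.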

[12] = test system: wheat (Triticum aestivum L.); assay: as above
Procedure, shortened: as §2

[13] = test system: redroot pigweed (Amaranthus retroflexus L.); assay: as above
Procedure, shortened: as §2

[14] = test system: green foxtail (Setaria viridis L.); assay: as above
Procedure, shortened: (§3)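 Visual 0–100% inhibition scoring (100 = complete kill) at 14 days after foliar treatment of soil-grown seedlings at species-specific leaf stages, with the compound sprayed as a wettable powder or emulsifiable concentrate dilution.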

rice (Oryza sativa L.) [15] = assay: as above
Procedure, shortened: as §3

[16] = test system: wild oat (Avena fatua L.); assay: as above
Procedure, shortened: as §3

[17] = test system: crabgrass (Digitaria sanquinalis L.); assay: as above
Procedure, shortened: as §2

[18] = test system: italian ryegrass (Lolium multiflorum Lam.); assay: as above
Procedure, shortened: as §2

[19] = test system: barnyardgrass (Echinochloa crus-qalli L.); assay: as above
Procedure, shortened: as §2

[20] = test system: soybean (Glycine max Merr.); assay: as above
Procedure, shortened: as §3

[21] = active ingredient amount 500 g/ha
[22] = active ingredient amount 31 g/ha

Cc1ccc(Oc2ccc3ccccc3n2)cc1-c1c(O)c(C)nn(C)c1=O [Compound 2-108]
Growth inhibition rate (%) Velvetleaf [1, 21]: 0%
Growth inhibition rate (%) Corn (corn (Zea mays L.) [2]; [21]): 0%
Growth inhibition rate (%) Wheat [3, 21]: 0%
Growth inhibition rate (%) Redroot pigweed [4, 21]: 0%
Growth inhibition rate (%) Green foxtail [5, 21]: 93%
Growth inhibition rate (%) Rice (rice (Oryza sativa L.) [6]; [21]): 93%
Growth inhibition rate (%) Crabgrass [7, 21]: 98%
Growth inhibition rate (%) Barnyardgrass [8, 21]: 100%
Growth inhibition rate (%) Prickly sida [9, 21]: 0%
Growth inhibition rate (%) Soybean [10, 21]: 0%
Growth inhibition rate (%) Corn (corn (Zea mays L.) [11]; [21]): 10%
Growth inhibition rate (%) Wheat [12, 21]: 50%
Growth inhibition rate (%) Redroot pigweed [13, 21]: 0%
Growth inhibition rate (%) Green foxtail [14, 21]: 95%
Growth inhibition rate (%) Rice (rice (Oryza sativa L.) [15]; [21]): 93%
Growth inhibition rate (%) Wild oat [16, 21]: 50%
Growth inhibition rate (%) Crabgrass [17, 21]: 85%
Growth inhibition rate (%) Italian ryegrass [18, 21]: 10%
Growth inhibition rate (%) Barnyardgrass [19, 21]: 100%
Growth inhibition rate (%) Soybean [20, 21]: 20%

CCc1ccc(Oc2nc3ccc(Cl)cc3s2)cc1-c1c(O)c(C)nn(C)c1=O [Compound 2-150]
Growth inhibition rate (%) Velvetleaf [1, 22]: 0%
Growth inhibition rate (%) Corn (corn (Zea mays L.) [2]; [22]): 0%
Growth inhibition rate (%) Wheat [3, 22]: 0%
Growth inhibition rate (%) Redroot pigweed [4, 22]: 100%
Growth inhibition rate (%) Green foxtail [5, 22]: 98%
Growth inhibition rate (%) Rice (rice (Oryza sativa L.) [6]; [22]): 0%
Growth inhibition rate (%) Crabgrass [7, 22]: 90%
Growth inhibition rate (%) Barnyardgrass [8, 22]: 100%
Growth inhibition rate (%) Prickly sida [9, 22]: 75%
Growth inhibition rate (%) Soybean [10, 22]: 0%
Growth inhibition rate (%) Corn (corn (Zea mays L.) [11]; [22]): 30%
Growth inhibition rate (%) Wheat [12, 22]: 75%
Growth inhibition rate (%) Redroot pigweed [13, 22]: 0%
Growth inhibition rate (%) Green foxtail [14, 22]: 98%
Growth inhibition rate (%) Rice (rice (Oryza sativa L.) [15]; [22]): 30%
Growth inhibition rate (%) Wild oat [16, 22]: 50%
Growth inhibition rate (%) Crabgrass [17, 22]: 60%
Growth inhibition rate (%) Italian ryegrass [18, 22]: 98%
Growth inhibition rate (%) Barnyardgrass [19, 22]: 100%
Growth inhibition rate (%) Soybean [20, 22]: 0%

CCn1nc(C)c(OC(C)=O)c(-c2cc(Oc3nc4ccc(Cl)cc4o3)ccc2C)c1=O [Compound 2-177]
Growth inhibition rate (%) Velvetleaf [1, 22]: 0%
Growth inhibition rate (%) Corn (corn (Zea mays L.) [2]; [22]): 0%
Growth inhibition rate (%) Wheat [3, 22]: 0%
Growth inhibition rate (%) Redroot pigweed [4, 22]: 0%
Growth inhibition rate (%) Green foxtail [5, 22]: 90%
Growth inhibition rate (%) Rice (rice (Oryza sativa L.) [6]; [22]): 30%
Growth inhibition rate (%) Crabgrass [7, 22]: 98%
Growth inhibition rate (%) Barnyardgrass [8, 22]: 90%
Growth inhibition rate (%) Prickly sida [9, 22]: 0%
Growth inhibition rate (%) Soybean [10, 22]: 0%
Growth inhibition rate (%) Corn (corn (Zea mays L.) [11]; [22]): 83%
Growth inhibition rate (%) Wheat [12, 22]: 90%
Growth inhibition rate (%) Redroot pigweed [13, 22]: 0%
Growth inhibition rate (%) Green foxtail [14, 22]: 99%
Growth inhibition rate (%) Rice (rice (Oryza sativa L.) [15]; [22]): 65%
Growth inhibition rate (%) Wild oat [16, 22]: 98%
Growth inhibition rate (%) Crabgrass [17, 22]: 100%
Growth inhibition rate (%) Italian ryegrass [18, 22]: 98%
Growth inhibition rate (%) Barnyardgrass [19, 22]: 100%
Growth inhibition rate (%) Soybean [20, 22]: 30%

CCc1ccc(Oc2ncc(C(F)(F)F)cc2Cl)cc1-c1c(O)cnn(C)c1=O [1-95]
Growth inhibition rate (%) Velvetleaf [1, 22]: 0%
Growth inhibition rate (%) Corn (corn (Zea mays L.) [2]; [22]): 80%
Growth inhibition rate (%) Wheat [3, 22]: 0%
Growth inhibition rate (%) Redroot pigweed [4, 22]: 0%
Growth inhibition rate (%) Green foxtail [5, 22]: 100%
Growth inhibition rate (%) Rice (rice (Oryza sativa L.) [6]; [22]): 50%
Growth inhibition rate (%) Crabgrass [7, 22]: 100%
Growth inhibition rate (%) Barnyardgrass [8, 22]: 100%
Growth inhibition rate (%) Prickly sida [9, 22]: 0%
Growth inhibition rate (%) Soybean [10, 22]: 0%
Growth inhibition rate (%) Corn (corn (Zea mays L.) [11]; [22]): 100%
Growth inhibition rate (%) Wheat [12, 22]: 45%
Growth inhibition rate (%) Redroot pigweed [13, 22]: 0%
Growth inhibition rate (%) Green foxtail [14, 22]: 100%
Growth inhibition rate (%) Rice (rice (Oryza sativa L.) [15]; [22]): 80%
Growth inhibition rate (%) Wild oat [16, 22]: 99%
Growth inhibition rate (%) Crabgrass [17, 22]: 100%
Growth inhibition rate (%) Italian ryegrass [18, 22]: 95%
Growth inhibition rate (%) Barnyardgrass [19, 22]: 100%
Growth inhibition rate (%) Soybean [20, 22]: 0%
